In brackets after ≈: the same amount, converted by molar mass.
Experiments:
RERF-LC-MA/LZRNL cell = assay: Cellular toxicity in control cell with no insertion of HSV-1 thymidine kinase gene (MTT); format: cell-based; conditions: Homo sapiens, 96 h, control RERF-LC-MA/LZRNL cell without HSV-1 thymidine kinase gene, 4 days
Protocol: (§1) The cellular toxicities of the quanine derivative for use in accordance with the invention (the compound in the free form represented by the structural formula 1), ganciclovir and aciclovir (Comparative Example 1 and 1') against HSV-1 thymidine kinase gene-introduced cells were tested.
(§2) Human lung small cell carcinoma-derived RERF-LC-MA cell was infected with a viral vector prepared by inserting the thymidine kinase gene in a vector derived from Molony mouse leukemia virus. The resulting RERF-LC-MA/LTRNL cell was used. Furthermore, RERF-LC-MA/LZRNL cell with no insertion of any HSV-1 thymidine kinase gene was used as a control cell. The method for preparing these cells and the assay of the cellular toxicities were according to the method reported by Hasegawa et al. [see Hasegawa Y. et al., Am. J. Respir. Cell Mol. Biol. 8 (6) (1993) p. 655-661]. Based on the assay method of cellular toxicity, the cellular toxicities were confirmed by a calorimetric assay method using MTT [3-(4,5-dimethylthiazol-2-yl)-2,5-diphenyl-tetrazolium bromide].
(§3) The RERF-LC-MA/LTPNL cell suspension was diluted with a culture medium (E-MEM, 10% FBS) and inoculated at 2×10^3 cells/well in a 96-well plate. Then, the pharmaceutical component (guanine derivative) for use in accordance with the invention, ganciclovir and aciclovir were added at various concentrations to these wells. Subsequently, the cellular toxicities were assayed and confirmed by a calorimetric assay humid atmosphere for 4 days and using MTT on day 4.

[1] = background statement; cited from earlier work
[2] = system: mouse granulocyte macrophage precursor cell (CFU-GM); assay: Effect on the inhibition of the growth of mouse granulocyte macrophage precursor cell (CFU-GM); format: cell-based, mouse C57BL/6N Crj; conditions: for IC50: CFU-GM, 168 h, mouse femur bone marrow cells, 4×10^4 cells/ml, mouse interleukin-3, 7 days, 37° C., read-out: IC50 (inhibition of CFU-GM colony formation)
Protocol: The effects of the guanine derivative for use in accordance with the invention (the free form of the compound represented by the structural formula 1), ganciclovir and aciclovir (Comparative Examples 2 and 2') on the inhibition of the growth of mouse granulocyte macrophage precursor cell (CFU-GM) were tested. The mouse granulocyte macrophage precursor cell of Okano et al. [see Okano A. et al., Transplantation 48 (1989) p. 495-498]. The effects on the inhibition of the growth of CFU-GM were assayed as follows. From the femur bone marrow of mouse C57BL/6N Crj females of age 10 weeks was prepared bone marrow cell, which was then inoculated at a concentration of 4×10^4 cells/ml in a semi-solid culture medium with addition of various concentrations of the guanine derivative, ganciclovir and aciclovir (Iscove's modified Dulbecco's medium, 0.8% carboxymethyl cellulose, 20% FBS, 200 units/ml mouse interleukin-3). The cell was cultured in 37° C. in 5% CO2 in a wet atmosphere on a 35-mm plate for 7 days. The emerging CFU-GM colonies were counted with a differential microscope.

RERF-LC-MA/LTRNL cell = assay: Cellular toxicity in HSV-1 thymidine kinase gene-introduced cell (MTT); format: cell-based, Human; conditions: versus ganciclovir and aciclovir
Protocol: as §1, §2
as §3, with “Subsequently, the cellular toxicities were assayed and confirmed by a calorimetric assay humid atmosphere for 4 days and using MTT on day 4.” left out

Row | Structure (SMILES) | IC50 (RERF-LC-MA/LZRNL cell) [µg/mL] | therapeutic effect [1] | IC50 [2] [µg/mL] | cellular toxicity effect compared with the conventional products (RERF-LC-MA/LTRNL cell) | bone marrow toxicity compared with ganciclovir and aciclovir ([2]; inferred from CFU-GM colony IC50)
1 | Nc1nc2c(ncn2COCCO)c(=O)[nH]1 [aciclovir] | ≥ 250 | extremely poor therapeutic effect | 26 (≈ 115 µM) |  | 
2 | Nc1nc(O)c2ncn(COC(CO)CO)c2n1 [ganciclovir] | ≥ 201 |  | 18 (≈ 70.5 µM) |  | 
3 | Nc1nc2c(ncn2C[C@]2(CO)C[C@H]2CO)c(=O)[nH]1 [guanine derivative, (-)-9-[1'S,2'R-bis(hydroxymethyl)cyclopropan-1'-yl]methylguanine] | ≥ 135 |  | ≥ 66 | more excellent cellular toxicity effect, compared with the conventional products | possibly weaker than those of ganciclovir and aciclovir

— patent US6331528A, “Method for treatment in gene therapy and use of guanine derivative therefor” (priority 2000, dated 2001)
